Among the data in patent publication US8541397B2, “Alkyne and alkene derivatives as sphingosine 1-phosphate-1 receptor modulators” (Allergan, Inc., priority 2010, dated 2013) are EC50 values, retold here.

The pEC50 is the EC50 on a negative log10 scale, so that one unit is a factor of ten.

Molecules are shown by their SMILES. pEC50: −log10 of the molar value.

The target in the experiment is T1, human S1P1 receptor (Homo sapiens, UniProt P21453).
T1 construct: expressed in transfected cells; membranes used
T1 sequence (P21453 whole entry): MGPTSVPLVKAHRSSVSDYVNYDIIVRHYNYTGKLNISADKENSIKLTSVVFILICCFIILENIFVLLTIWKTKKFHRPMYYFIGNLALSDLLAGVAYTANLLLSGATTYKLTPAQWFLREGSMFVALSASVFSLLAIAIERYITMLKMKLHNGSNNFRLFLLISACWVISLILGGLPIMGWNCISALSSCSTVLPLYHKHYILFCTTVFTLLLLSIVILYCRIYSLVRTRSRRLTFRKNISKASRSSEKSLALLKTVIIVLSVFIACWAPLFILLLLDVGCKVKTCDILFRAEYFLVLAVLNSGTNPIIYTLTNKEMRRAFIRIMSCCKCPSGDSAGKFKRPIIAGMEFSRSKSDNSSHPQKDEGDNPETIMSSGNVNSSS
The experiment in a line: GTP γ35S binding assay for S1P1 activity. Conditions: activity potency, S1P1 receptor from GTP γ35S binding; membranes; test compounds 0.08 to 5,000 nM. It is filed as biochemical. Here is the method:
Compounds were synthesized and tested for S1P1 activity using the GTP γ^35S binding assay. These compounds may be assessed for their ability to activate or block activation of the human S1P1 receptor in cells stably expressing the S1P1 receptor.
GTP γ^35S binding was measured in the medium containing (mM) HEPES 25, pH 7.4, MgCl2 10, NaCl 100, dithitothreitol 0.5, digitonin 0.003%, 0.2 nM GTP γ^35S, and 5 μg membrane protein in a volume of 150 μl. Test compounds were included in the concentration range from 0.08 to 5,000 nM unless indicated otherwise. Membranes were incubated with 100 μM 5′-adenylylimmidodiphosphate for 30 min, and subsequently with 10 μM GDP for 10 min on ice. Drug solutions and membrane were mixed, and then reactions were initiated by adding GTP γ^35S and continued for 30 min at 25° C. Reaction mixtures were filtered over Whatman GF/B filters under vacuum, and washed three times with 3 mL of ice-cold buffer (HEPES 25, pH7.4, MgCl2 10 and NaCl 100). Filters were dried and mixed with scintillant, and counted for ^35S activity using a β-counter. Agonist-induced GTP γ^35S binding was obtained by subtracting that in the absence of agonist. Binding data were analyzed using a non-linear regression method. In case of antagonist assay, the reaction mixture contained 10 nM S1P in the presence of test antagonist at concentrations ranging from 0.08 to 5000 nM.
(GTPγS is a poorly hydrolysed GTP analogue; its binding reports G protein activation.)
For the compound `Cc1ccc(CC(C#Cc2ccc(CNCCCP(=O)(O)O)cc2-c2ccco2)c2cccc(F)c2)cc1C` (stereo not drawn) [Compound 14, [3-({4-[4-(3,4-dimethylphenyl)-3-(3-fluorophenyl)but-1-yn-1-yl]-3-(2-furyl)benzyl}amino)propyl]phosphonic acid], the pEC50 is 6.62.

`Cc1ccc(CC(C#Cc2ccc(CNCCC(=O)O)cc2)c2ccc(Cl)cc2)cc1C` (stereo not drawn) [Compound 5, 3-({4-[3-(4-chlorophenyl)-4-(3,4-dimethylphenyl)but-1-yn-1-yl]benzyl}amino)propanoic acid] gave a pEC50 of 6.32.

Regarding `Cc1ccc(CC(C#Cc2ccc(CNCCCP(=O)(O)O)cc2Br)c2cccc(F)c2)cc1C` (stereo not drawn) [Compound 13, [3-({3-bromo-4-[4-(3,4-dimethylphenyl)-3-(3-fluorophenyl)but-1-yn-1-yl]benzyl}amino)propyl]phosphonic acid], the pEC50 was 8.22.

`Cc1cccc(C(C#Cc2ccc(CNCCCP(=O)(O)O)cc2-c2ccco2)Cc2ccc(C)c(C)c2)c1` (stereo not drawn) [Compound 17, [3-({4-[4-(3,4-dimethylphenyl)-3-(3-methylphenyl)but-1-yn-1-yl]-3-(2-furyl)benzyl}amino)propyl]phosphonic acid] had a pEC50 of 7.23.

The compound `Cc1ccc(CC(C#Cc2ccc(CNCCCP(=O)(O)O)cc2C)c2cccc(F)c2)cc1C` (stereo not drawn) [Compound 12, [3-({4-[4-(3,4-dimethylphenyl)-3-(3-fluorophenyl)but-1-yn-1-yl]-3-methylbenzyl}amino)propyl]phosphonic acid] showed a pEC50 of 5.72.

In turn, `Cc1ccc(CC(C#Cc2ccc(CNCCCP(=O)(O)O)cc2Br)c2cc(F)cc(F)c2)cc1C` (stereo not drawn) [Compound 16, [3-({3-bromo-4-[3-(3,5-difluorophenyl)-4-(3,4-dimethylphenyl)but-1-yn-1-yl]benzyl}amino)propyl]phosphonic acid] had a pEC50 of 7.51.

`Cc1ccc(CC(/C=C/c2ccc(CNCCC(=O)O)cc2)c2cccc(F)c2)cc1C` (stereo not drawn) [Compound 22, 3-({4-[(1E)-4-(3,4-dimethylphenyl)-3-(3-fluorophenyl)but-1-en-1-yl]benzyl}amino)propanoic acid]: the pEC50 is 6.58.

`Cc1ccc(CC(C#Cc2ccc(CNCCCP(=O)(O)O)cc2)c2cccc(Cl)c2)cc1C` (stereo not drawn) [Compound 8, (3-{4-[3-(3-Chloro-phenyl)-4-(3,4-dimethyl-phenyl)-but-1-ynyl]-benzylamino}-propyl)-phosphonic acid] showed a pEC50 of 7.12.

Regarding `Cc1ccc(CC(C#Cc2ccc(OCC(O)CO)c(Cl)c2)c2cccc(F)c2)cc1C` (stereo not drawn) [Compound 20, 3-{2-chloro-4-[4-(3,4-dimethylphenyl)-3-(3-fluorophenyl)but-1-yn-1-yl]phenoxy}propane-1,2-diol], the pEC50 is 6.22.

As for `Cc1cccc(C(C#Cc2ccc(OCC(O)CO)c(Cl)c2)Cc2ccc(C)c(C)c2)c1` (stereo not drawn) [Compound 21, 3-{2-chloro-4-[4-(3,4-dimethylphenyl)-3-(3-methylphenyl)but-1-yn-1-yl]phenoxy}propane-1,2-diol], the pEC50 was 6.40.

Compound `COc1cccc(C(C#Cc2ccc(CNCCCP(=O)(O)O)cc2)Cc2ccc(C)c(C)c2)c1` (stereo not drawn) [Compound 7, (3-{4-[4-(3,4-Dimethyl-phenyl)-3-(3-methoxy-phenyl)-but-1-ynyl]-benzylamino}-propyl)-phosphonic acid] gave a pEC50 of 6.80.

`Cc1ccc(CC(C#Cc2ccc(CNCCCP(=O)(O)O)cc2C)c2cccc(Cl)c2)cc1C` (stereo not drawn) [Compound 10, (3-{4-[3-(3-Chloro-phenyl)-4-(3,4-dimethyl-phenyl)-but-1-ynyl]-3-methyl-benzylamino}-propyl)-phosphonic acid] gave a negative-log EC50 (pEC50) of 7.75.

`Cc1ccc(CC(C#Cc2ccc(CNCCC(=O)O)cc2C)c2cccc(Cl)c2)cc1C` (stereo not drawn) [Compound 2, 3-{4-[3-(3-Chloro-phenyl)-4-(3,4-dimethyl-phenyl)-but-1-ynyl]-3-methyl-benzylamino}-propionic acid]: the pEC50 is 6.58.

As to `Cc1ccc(CC(C#Cc2ccc(OCC(O)CO)c(Cl)c2)c2cccc(Cl)c2)cc1C` (stereo not drawn) [Compound 19, 3-{2-chloro-4-[3-(3-chlorophenyl)-4-(3,4-dimethylphenyl)but-1-yn-1-yl]phenoxy}propane-1,2-diol], the pEC50 was 6.62.

The compound `Cc1cccc(C(C#Cc2ccc(CNCCC(=O)O)cc2)Cc2ccc(C)c(C)c2)c1` (stereo not drawn) [Compound 4, 3-({4-[4-(3,4-dimethylphenyl)-3-(3-methylphenyl)but-1-yn-1-yl]benzyl}amino)propanoic acid] showed a pEC50 of 6.30.

`COc1cccc(C(C#Cc2ccc(CNCCC(=O)O)cc2)Cc2ccc(C)c(C)c2)c1` (stereo not drawn) [Compound 1, 3-({4-[4-(3,4-dimethylphenyl)-3-(3-methoxyphenyl)but-1-yn-1-yl]benzyl}amino)propanoic acid] showed a pEC50 of 6.61.

Regarding `Cc1ccc(CC(C#Cc2ccc(CNCCC(=O)O)cc2)c2cccc(Cl)c2)cc1C` (stereo not drawn) [Compound 3, 3-({4-[3-(3-chlorophenyl)-4-(3,4-dimethylphenyl)but-1-yn-1-yl]benzyl}amino)propanoic acid], the pEC50 is 7.18.

The compound `Cc1cccc(C(C#Cc2ccc(CNCCCP(=O)(O)O)cc2C)Cc2ccc(C)c(C)c2)c1` (stereo not drawn) [Compound 11, [3-({4-[4-(3,4-dimethylphenyl)-3-(3-methylphenyl)but-1-yn-1-yl]-3 methylbenzyl}amino)propyl]phosphonic acid] had a pEC50 of 7.25.

With `Cc1cccc(C(C#Cc2ccc(CNCCCP(=O)(O)O)cc2)Cc2ccc(C)c(C)c2)c1` (stereo not drawn) [Compound 9, (3-{4-[4-(3,4-Dimethyl-phenyl)-3-m-tolyl-but-1-ynyl]-benzylamino}-propyl)-phosphonic acid], the pEC50 was 6.93.

In turn, `Cc1ccc(CC(/C=C/c2ccc(CNCCCP(=O)(O)O)cc2)c2cccc(F)c2)cc1C` (stereo not drawn) [Compound 23, [3-({4-[(1E)-4-(3,4-dimethylphenyl)-3-(3-fluorophenyl)but-1-en-1 yl]benzyl}amino)propyl]phosphonic acid] gave a pEC50 of 6.76.

`Cc1cccc(C(C#Cc2ccc(CNCCCP(=O)(O)O)cc2-c2cccs2)Cc2ccc(C)c(C)c2)c1` (stereo not drawn) [Compound 15, [3-({4-[4-(3,4-dimethylphenyl)-3-(3-methylphenyl)but-1-yn-1-yl]-3-(2-thienyl)benzyl}amino)propyl]phosphonic acid] had a pEC50 of 6.75.
